Experimental data: patent US7462600B2, “Macrolides” (Pfizer Inc, priority 2004, dated 2008)
≈ marks a conversion by molar mass, not a printed value.

How the values were obtained:
Type in all cases: cell-based
[1] = system: Streptococcus pyogenes 1079; assay: MIC, microtiter broth dilution (NCCLS M100-S14), S. pyogenes 1079 (ermB); settings: Streptococcus pyogenes 1079
Outline: (§1)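 Where available, resistant strains were tested alongside the susceptible parent they derive from. The MIC, determined by tray-based broth dilution and NCCLS M100-S14 interpretation, served as the comparison value.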

[2] = system: Streptococcus pneumoniae 1016; assay: MIC, microtiter broth dilution (NCCLS M100-S14), S. pneumoniae 1016 (susceptible); settings: Streptococcus pneumoniae 1016
Outline: as §1

[3] = system: Streptococcus pneumoniae 1095; settings: Streptococcus pneumoniae 1095; microtiter broth dilution
Outline: as §1

[4] = system: Streptococcus pneumoniae 1175; settings: Streptococcus pneumoniae 1175; microtiter broth dilution
Outline: as §1

[5] = system: Haemophilus influenzae 1218; assay: MIC, microtiter broth dilution (NCCLS M100-S14), H. influenzae 1218 (susceptible); settings: Haemophilus influenzae 1218
Outline: as §1

For CCC1OC(=O)C(C)C(=O)C(C)C(OC2OC(C)CC(N(C)C)C2O)C(C)(OC)CC(C)C(=O)C(C)C2N(C3CN(C(=O)c4cccc5[nH]c(C)nc45)C3)C(=O)OC12C (stereo not drawn) [Example 2.02], the “MIC S. pyogenes 1079” value [1] was >64.00 µg/mL, the “MIC S. pneumo. 1016” value [2] was <0.06 µg/mL and the “MIC S. pneumo. 1095” value [3] was >64.00 µg/mL. The “MIC S. pneumo. 1175” value [4] was 2 µg/mL (≈ 2.42 µM) and the “MIC H. influenzae 1218” value [5] was 2 µg/mL (≈ 2.42 µM).

With CCC1OC(=O)C(C)C(=O)C(C)C(OC2OC(C)CC(N(C)C)C2O)C(C)(OC)CC(C)C(=O)C(C)C2N(C3CN(C(=O)Nc4ccc5ccccc5c4)C3)C(=O)OC12C (stereo not drawn) [Example 2.04] the “MIC S. pyogenes 1079” value [1] was 32 µg/mL (≈ 38.2 µM), the “MIC S. pneumo. 1016” value [2] was <0.06 µg/mL and the “MIC S. pneumo. 1095” value [3] was 8 µg/mL (≈ 9.56 µM). The “MIC S. pneumo. 1175” value [4] was <0.06 µg/mL and the “MIC H. influenzae 1218” value [5] was 8 µg/mL (≈ 9.56 µM).

For CCC1OC(=O)C(C)C(=O)C(C)C(OC2OC(C)CC(N(C)C)C2O)C(C)(OC)CC(C)C(=O)C(C)C2N(C3CN(C(=O)Nc4ccc5ncccc5c4)C3)C(=O)OC12C (stereo not drawn) [Example 2.05, N-(quinolin-6-yl) aminocarbonyl], the “MIC S. pyogenes 1079” value [1] was 64 µg/mL (≈ 76.4 µM), the “MIC S. pneumo. 1016” value [2] was <0.06 µg/mL and the “MIC S. pneumo. 1095” value [3] was 16 µg/mL (≈ 19.1 µM). For the same compound, the “MIC S. pneumo. 1175” value [4] was <0.06 µg/mL and the “MIC H. influenzae 1218” value [5] was 0.5 µg/mL (≈ 0.597 µM).

CCC1OC(=O)C(C)C(=O)C(C)C(OC2OC(C)CC(N(C)C)C2O)C(C)(OC)CC(C)C(=O)C(C)C2N(C3CN(C(=O)Nc4cccc5ncccc45)C3)C(=O)OC12C (stereo not drawn) [Example 2.06, 3-descladinosyl-11,12-dideoxy-6-O-methyl-3-oxo-12,11-(oxycarbonyl-(1-(N-(quinolin-5-yl)-aminocarbonyl)-azetidin-3-yl)-imino)-erythromycin A] was tested, and the “MIC S. pyogenes 1079” value [1] was >64.00 µg/mL, the “MIC S. pneumo. 1016” value [2] was <0.06 µg/mL and the “MIC S. pneumo. 1095” value [3] was 16 µg/mL (≈ 19.1 µM). For the same compound, the “MIC S. pneumo. 1175” value [4] was 0.25 µg/mL (≈ 0.298 µM) and the “MIC H. influenzae 1218” value [5] was 0.5 µg/mL (≈ 0.597 µM).

For CCC1OC(=O)C(C)C(=O)C(C)C(OC2OC(C)CC(N(C)C)C2O)C(C)(OC)CC(C)C(=O)C(C)C2N(C3CN(C(=O)Nc4cc(-c5ccc(F)cc5)n[nH]4)C3)C(=O)OC12C (stereo not drawn) [Example 2.07], the “MIC S. pyogenes 1079” value [1] was 16 µg/mL (≈ 18.4 µM), the “MIC S. pneumo. 1016” value [2] was <0.06 µg/mL and the “MIC S. pneumo. 1095” value [3] was 4 µg/mL (≈ 4.59 µM). For the same compound, the “MIC S. pneumo. 1175” value [4] was 32 µg/mL (≈ 36.7 µM) and the “MIC H. influenzae 1218” value [5] was 16 µg/mL (≈ 18.4 µM).

In the case of CCC1OC(=O)C(C)C(=O)C(C)C(OC2OC(C)CC(N(C)C)C2O)C(C)(OC)CC(C)C(=O)C(C)C2N(C3CN(C(=O)Nc4cc(-c5cncc(C)c5)n[nH]4)C3)C(=O)OC12C (stereo not drawn) [Example 2.08], the “MIC S. pyogenes 1079” value [1] is reported as 32 µg/mL (≈ 36.9 µM), the “MIC S. pneumo. 1016” value [2] is reported as <0.06 µg/mL and the “MIC S. pneumo. 1095” value [3] is reported as 1 µg/mL (≈ 1.15 µM). The “MIC S. pneumo. 1175” value [4] was 16 µg/mL (≈ 18.4 µM) and the “MIC H. influenzae 1218” value [5] was 8 µg/mL (≈ 9.22 µM).

With CCC1OC(=O)C(C)C(=O)C(C)C(OC2OC(C)CC(N(C)C)C2O)C(C)(OC)CC(C)C(=O)C(C)C2N(C3CN(C(=O)Nc4cccc5nccnc45)C3)C(=O)OC12C (stereo not drawn) [Example 2.09, N-(quinoxalin-8-yl) aminocarbonyl] the “MIC S. pyogenes 1079” value [1] was >64.00 µg/mL, the “MIC S. pneumo. 1016” value [2] was <0.06 µg/mL and the “MIC S. pneumo. 1095” value [3] was 16 µg/mL (≈ 19.1 µM). The “MIC S. pneumo. 1175” value [4] was 0.25 µg/mL (≈ 0.298 µM) and the “MIC H. influenzae 1218” value [5] was 8 µg/mL (≈ 9.54 µM).

CCC1OC(=O)C(C)C(=O)C(C)C(OC2OC(C)CC(N(C)C)C2O)C(C)(OC)CC(C)C(=O)C(C)C2N(C3CN(C(=O)NCc4ccc5ncccc5c4)C3)C(=O)OC12C (stereo not drawn) [Example 2.10, N-((quinolin-6-yl)inethyl) aminocarbonyl] was tested, and the “MIC S. pyogenes 1079” value [1] was >64.00 µg/mL, the “MIC S. pneumo. 1016” value [2] was <0.06 µg/mL and the “MIC S. pneumo. 1095” value [3] was 8 µg/mL (≈ 9.39 µM). For the same compound, the “MIC S. pneumo. 1175” value [4] was 0.25 µg/mL (≈ 0.293 µM) and the “MIC H. influenzae 1218” value [5] was 2 µg/mL (≈ 2.35 µM).

CCC1OC(=O)C(C)C(=O)C(C)C(OC2OC(C)CC(N(C)C)C2O)C(C)(OC)CC(C)C(=O)C(C)C2N(C3CN(C(=O)NCc4cnc5ccccc5c4)C3)C(=O)OC12C (stereo not drawn) [Example 2.11, N-((quinolin-3-)methyl) aminocarbonyl] was tested, and the “MIC S. pyogenes 1079” value [1] was >64.00 µg/mL, the “MIC S. pneumo. 1016” value [2] was <0.06 µg/mL and the “MIC S. pneumo. 1095” value [3] was 2 µg/mL (≈ 2.35 µM). For the same compound, the “MIC S. pneumo. 1175” value [4] was 0.12 µg/mL (≈ 0.141 µM) and the “MIC H. influenzae 1218” value [5] was 0.5 µg/mL (≈ 0.587 µM).
